Assay [1] addresses T1, Hypoxia-inducible factor 1-alpha (Homo sapiens, UniProt Q16665). Description: Inhibition of HIF-1 alpha in human MDA-MB-231 cells by Western blotting analysis in hypoxia condition. For orientation: A western blot detects proteins with antibodies after separation by electrophoresis.
For assay [2], the target named is T2, Signal transducer and activator of transcription 3 (Homo sapiens, UniProt P40763). Description: Inhibition of Stat3 phosphorylation in human MDA-MB-468 cells by Western blotting analysis in hypoxia condition.
T2 sequence (P40763 whole entry): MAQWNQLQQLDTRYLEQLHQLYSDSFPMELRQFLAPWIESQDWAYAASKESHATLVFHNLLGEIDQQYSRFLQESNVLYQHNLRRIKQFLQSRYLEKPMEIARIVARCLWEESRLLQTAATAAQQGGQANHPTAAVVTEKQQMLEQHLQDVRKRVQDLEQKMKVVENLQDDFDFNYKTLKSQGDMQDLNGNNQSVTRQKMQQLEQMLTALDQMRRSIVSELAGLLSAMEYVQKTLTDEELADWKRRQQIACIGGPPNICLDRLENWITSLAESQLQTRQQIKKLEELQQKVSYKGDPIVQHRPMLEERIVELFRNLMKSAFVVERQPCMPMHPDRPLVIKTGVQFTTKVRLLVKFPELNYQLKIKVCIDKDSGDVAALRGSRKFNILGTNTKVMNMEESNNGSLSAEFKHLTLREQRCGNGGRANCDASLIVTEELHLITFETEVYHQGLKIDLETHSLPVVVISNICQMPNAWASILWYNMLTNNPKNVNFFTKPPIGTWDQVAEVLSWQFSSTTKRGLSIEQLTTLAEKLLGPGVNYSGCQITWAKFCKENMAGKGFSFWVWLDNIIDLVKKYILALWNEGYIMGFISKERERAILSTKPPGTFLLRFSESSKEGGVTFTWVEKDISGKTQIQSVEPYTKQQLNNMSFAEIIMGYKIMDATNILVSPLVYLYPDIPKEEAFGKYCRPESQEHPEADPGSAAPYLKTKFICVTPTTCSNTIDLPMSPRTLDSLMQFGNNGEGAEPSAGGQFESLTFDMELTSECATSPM
Assay [3] concerns the target T1, Hypoxia-inducible factor 1-alpha. The experiment in a line: Inhibition of HIF-1 alpha in human MDA-MB-468 cells by Western blotting analysis in hypoxia condition.
The target of assay [4] is T2, Signal transducer and activator of transcription 3. The experiment in a line: Inhibition of Stat3 phosphorylation in human MDA-MB-231 cells by Western blotting analysis in hypoxia condition.
Assay [5] has the same target. The experiment in a line: Inhibition of Stat3 phosphorylation in human OVCAR3 cells by Western blotting analysis in hypoxia condition.
Assay [6] shares this target. Description: Inhibition of Stat3 phosphorylation in human PANC1 cells by Western blotting analysis in normoxia condition.
The target in assay [7] is T1, Hypoxia-inducible factor 1-alpha. Description: Inhibition of HIF-1 alpha in human PANC1 cells by Western blotting analysis in hypoxia condition.
Assay [8] shares this target. Description: Inhibition of HIF-1 alpha in human OVCAR3 cells by Western blotting analysis in hypoxia condition.
In assay [9] the target is T2, Signal transducer and activator of transcription 3. The experiment in a line: Inhibition of Stat3 phosphorylation in human MDA-MB-468 cells by Western blotting analysis in normoxia condition.
Assay [10] has the same target. The experiment in a line: Inhibition of Stat3 phosphorylation in human OVCAR3 cells by Western blotting analysis in normoxia condition.
Assay [11] shares this target. Description: Inhibition of Stat3 phosphorylation in human MDA-MB-231 cells by Western blotting analysis in normoxia condition.
For assay [12] the target is unchanged. The experiment in a line: Inhibition of Stat3 phosphorylation in human PANC1 cells by Western blotting analysis in hypoxia condition.

T1 sequence (Q16665 whole entry): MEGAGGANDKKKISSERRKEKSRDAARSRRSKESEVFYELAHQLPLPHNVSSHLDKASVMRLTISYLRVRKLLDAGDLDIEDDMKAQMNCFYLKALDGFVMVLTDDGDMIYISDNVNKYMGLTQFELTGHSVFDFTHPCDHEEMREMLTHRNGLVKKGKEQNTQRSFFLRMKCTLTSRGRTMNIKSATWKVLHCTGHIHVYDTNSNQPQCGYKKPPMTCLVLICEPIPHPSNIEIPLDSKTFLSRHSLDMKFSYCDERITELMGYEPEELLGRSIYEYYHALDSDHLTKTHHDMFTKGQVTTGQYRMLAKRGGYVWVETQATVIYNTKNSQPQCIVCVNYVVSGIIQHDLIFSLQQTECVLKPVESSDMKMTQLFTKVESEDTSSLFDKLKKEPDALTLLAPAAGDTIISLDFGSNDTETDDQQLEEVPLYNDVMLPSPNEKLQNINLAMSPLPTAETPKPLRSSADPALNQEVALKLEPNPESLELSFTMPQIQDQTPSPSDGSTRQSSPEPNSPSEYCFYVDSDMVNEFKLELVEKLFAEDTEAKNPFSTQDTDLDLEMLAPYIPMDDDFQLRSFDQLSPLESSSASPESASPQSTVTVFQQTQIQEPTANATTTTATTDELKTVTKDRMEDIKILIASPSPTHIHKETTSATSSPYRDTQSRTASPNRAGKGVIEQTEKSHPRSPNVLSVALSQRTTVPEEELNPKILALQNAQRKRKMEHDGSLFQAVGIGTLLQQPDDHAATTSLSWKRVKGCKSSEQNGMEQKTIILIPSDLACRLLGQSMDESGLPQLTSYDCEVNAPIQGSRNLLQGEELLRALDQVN

On to `CN(C)CCCN1C(=O)c2ccc3c4ccc5c6c(ccc(c7ccc(c2c37)C1=O)c64)C(=O)N(CCCN(C)C)C5=O`, for which the IC50 (in general, the midpoint of a concentration-inhibition curve) amounted to 3000 nM in assay [1]; 4.5 µM in assay [2]; 3000 nM in assay [3]; 4.5 µM in [4]; 4.5 µM in assay [5]; 4.5 µM in assay [6]. In addition, the IC50 in assay [7] came out at 3000 nM; in [8], 3000 nM; in assay [9] it was 4.5 µM; in assay [10] it was 4.5 µM; in assay [11], 4.5 µM; in [12], 4.5 µM.

The values are drawn from BindingDB's records for doi:10.1016/j.bmc.2013.10.018 (Baylor College of Medicine, 2014).
